#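 Results reflect a 48-hour exposure of cells in 96-well plates to compound at five concentrations. GI50: concentration for 50% inhibition of growth. TGI is the concentration that stops growth completely.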
# How the values were obtained:
# Test in all cases: inhibition of tumour cell growth, NCI panel, 48 h
# MALME-3M melanoma = tested on: MALME-3M melanoma
# LOX IMVI melanoma = tested on: LOX IMVI melanoma
# SNB-75 CNS = tested on: SNB-75 CNS
# COLO 205 colon = tested on: COLO 205 colon
# SK-OV-3 ovarian = tested on: SK-OV-3 ovarian
# SF-295 CNS = tested on: SF-295 CNS
# NCI-H226 lung = tested on: NCI-H226 lung
# 786-0 renal = tested on: 786-0 renal
# MCF7 breast = tested on: MCF7 breast
# NCI-H460 lung = tested on: NCI-H460 lung
# CCRF-CEM leukemia = tested on: CCRF-CEM leukemia
# BT-549 breast = tested on: BT-549 breast
# TK-10 renal = tested on: TK-10 renal
# HOP-62 NSCLC = tested on: HOP-62 NSCLC
# HOP-92 NSCLC = tested on: HOP-92 NSCLC
# SF-268 CNS = tested on: SF-268 CNS
# U251 CNS = tested on: U251 CNS
# ACHN renal = tested on: ACHN renal
# OVCAR-5 ovarian = tested on: OVCAR-5 ovarian
# SW-620 colon = tested on: SW-620 colon
# UACC-62 melanoma = tested on: UACC-62 melanoma
# OVCAR-4 ovarian = tested on: OVCAR-4 ovarian
# A549 NSCLC = tested on: A549 NSCLC
# SR leukemia = tested on: SR leukemia
# RXF 393 renal = tested on: RXF 393 renal
# SN12C renal = tested on: SN12C renal
# SNB-19 CNS = tested on: SNB-19 CNS
# HS 578T breast = tested on: HS 578T breast
# RPMI-8226 leukemia = tested on: RPMI-8226 leukemia
# NCI-H522 lung = tested on: NCI-H522 lung
# NCI-H23 lung = tested on: NCI-H23 lung
# OVCAR-3 ovarian = tested on: OVCAR-3 ovarian
# HT29 colon = tested on: HT29 colon
# A498 renal = tested on: A498 renal
# CAKI-1 renal = tested on: CAKI-1 renal
# PC-3 prostate = tested on: PC-3 prostate
# HCT-15 colon = tested on: HCT-15 colon
# UO-31 renal = tested on: UO-31 renal
# NCI/ADR-RES ovarian = tested on: NCI/ADR-RES ovarian
# OVCAR-8 ovarian = tested on: OVCAR-8 ovarian
# M14 melanoma = tested on: M14 melanoma
# T-47D breast = tested on: T-47D breast
# K-562 leukemia = tested on: K-562 leukemia
# SF-539 CNS = tested on: SF-539 CNS
# SK-MEL-2 melanoma = tested on: SK-MEL-2 melanoma
# IGROV1 ovarian = tested on: IGROV1 ovarian
# SK-MEL-28 melanoma = tested on: SK-MEL-28 melanoma
# MOLT-4 leukemia = tested on: MOLT-4 leukemia
# HCC-2998 colon = tested on: HCC-2998 colon
# MDA-MB-231 breast = tested on: MDA-MB-231 breast
# DU-145 prostate = tested on: DU-145 prostate
# KM12 colon = tested on: KM12 colon
# HL-60(TB) leukemia = tested on: HL-60(TB) leukemia
# SK-MEL-5 melanoma = tested on: SK-MEL-5 melanoma
# UACC-257 melanoma = tested on: UACC-257 melanoma
# MDA-MB-435 = tested on: MDA-MB-435
# HCT-116 colon = tested on: HCT-116 colon
smiles,measurement,setting,value
Cc1ccc(-c2c3c(N)c4c(nc3nc3c2c(C)nn3-c2ccccc2)CCC4)cc1,GI50,MALME-3M melanoma,18.4 µM
same,TGI,MALME-3M melanoma,39.1 µM
same,GI50,LOX IMVI melanoma,1.98 µM
same,TGI,LOX IMVI melanoma,3.99 µM
same,GI50,SNB-75 CNS,2.07 µM
same,TGI,SNB-75 CNS,6.66 µM
same,GI50,COLO 205 colon,1.69 µM
same,TGI,COLO 205 colon,3.6 µM
same,GI50,SK-OV-3 ovarian,7.01 µM
same,TGI,SK-OV-3 ovarian,15 µM
same,GI50,SF-295 CNS,7.45 µM
same,TGI,SF-295 CNS,21.9 µM
same,GI50,NCI-H226 lung,22.1 µM
same,TGI,NCI-H226 lung,53.7 µM
same,GI50,786-0 renal,1.87 µM
same,TGI,786-0 renal,3.65 µM
same,GI50,MCF7 breast,1.75 µM
same,TGI,MCF7 breast,4.34 µM
same,GI50,NCI-H460 lung,2.02 µM
same,TGI,NCI-H460 lung,4.44 µM
same,GI50,CCRF-CEM leukemia,2.54 µM
same,TGI,CCRF-CEM leukemia,7.2 µM
same,GI50,BT-549 breast,20.7 µM
same,TGI,BT-549 breast,45.5 µM
same,GI50,TK-10 renal,2.43 µM
same,TGI,TK-10 renal,5.42 µM
same,GI50,HOP-62 NSCLC,2.7 µM
same,TGI,HOP-62 NSCLC,8.23 µM
same,GI50,HOP-92 NSCLC,15.7 µM
same,TGI,HOP-92 NSCLC,36.3 µM
same,GI50,SF-268 CNS,3.26 µM
same,TGI,SF-268 CNS,11 µM
same,GI50,U251 CNS,1.95 µM
same,TGI,U251 CNS,4.01 µM
same,GI50,ACHN renal,3.16 µM
same,TGI,ACHN renal,8.38 µM
same,GI50,OVCAR-5 ovarian,5.69 µM
same,TGI,OVCAR-5 ovarian,13.1 µM
same,GI50,SW-620 colon,2.6 µM
same,TGI,SW-620 colon,9.57 µM
same,GI50,UACC-62 melanoma,18.6 µM
same,TGI,UACC-62 melanoma,35.7 µM
same,GI50,OVCAR-4 ovarian,2.98 µM
same,TGI,OVCAR-4 ovarian,11.9 µM
same,GI50,A549 NSCLC,2.5 µM
same,TGI,A549 NSCLC,7.49 µM
same,GI50,SR leukemia,0.472 µM
same,TGI,SR leukemia,9.61 µM
same,GI50,RXF 393 renal,1.58 µM
same,TGI,RXF 393 renal,3.25 µM
same,GI50,SN12C renal,1.83 µM
same,TGI,SN12C renal,3.74 µM
same,GI50,SNB-19 CNS,3.85 µM
same,TGI,SNB-19 CNS,18 µM
same,GI50,HS 578T breast,5.03 µM
same,TGI,HS 578T breast,15.6 µM
same,GI50,RPMI-8226 leukemia,2.23 µM
same,TGI,RPMI-8226 leukemia,5.53 µM
same,GI50,NCI-H522 lung,18.2 µM
same,TGI,NCI-H522 lung,40.3 µM
same,GI50,NCI-H23 lung,17.5 µM
same,TGI,NCI-H23 lung,40 µM
same,GI50,OVCAR-3 ovarian,1.96 µM
same,TGI,OVCAR-3 ovarian,3.86 µM
same,GI50,HT29 colon,5.07 µM
same,TGI,HT29 colon,10.9 µM
same,GI50,A498 renal,16.1 µM
same,TGI,A498 renal,32.6 µM
same,GI50,CAKI-1 renal,6.89 µM
same,TGI,CAKI-1 renal,16.6 µM
same,GI50,PC-3 prostate,5.07 µM
same,TGI,PC-3 prostate,20.9 µM
same,GI50,HCT-15 colon,2.11 µM
same,TGI,HCT-15 colon,5.15 µM
same,GI50,UO-31 renal,1.87 µM
same,TGI,UO-31 renal,3.94 µM
same,GI50,NCI/ADR-RES ovarian,8.23 µM
same,TGI,NCI/ADR-RES ovarian,32.3 µM
same,GI50,OVCAR-8 ovarian,2.32 µM
same,TGI,OVCAR-8 ovarian,5.89 µM
same,GI50,M14 melanoma,6.25 µM
same,TGI,M14 melanoma,20.1 µM
same,GI50,T-47D breast,2.18 µM
same,TGI,T-47D breast,5.08 µM
same,GI50,K-562 leukemia,2.42 µM
same,TGI,K-562 leukemia,6.56 µM
same,GI50,SF-539 CNS,1.86 µM
same,TGI,SF-539 CNS,3.46 µM
same,GI50,SK-MEL-2 melanoma,21.1 µM
same,TGI,SK-MEL-2 melanoma,42.6 µM
same,GI50,IGROV1 ovarian,4.02 µM
same,TGI,IGROV1 ovarian,16.2 µM
same,GI50,SK-MEL-28 melanoma,4.44 µM
same,TGI,SK-MEL-28 melanoma,9.69 µM
same,GI50,MOLT-4 leukemia,2.81 µM
same,TGI,MOLT-4 leukemia,7.94 µM
same,GI50,HCC-2998 colon,3 µM
same,TGI,HCC-2998 colon,8.43 µM
same,GI50,MDA-MB-231 breast,1.85 µM
same,TGI,MDA-MB-231 breast,3.98 µM
same,GI50,DU-145 prostate,2.21 µM
same,TGI,DU-145 prostate,4.68 µM
same,GI50,KM12 colon,4.4 µM
same,TGI,KM12 colon,16 µM
same,GI50,HL-60(TB) leukemia,2.07 µM
same,TGI,HL-60(TB) leukemia,4.67 µM
same,GI50,SK-MEL-5 melanoma,1.73 µM
same,TGI,SK-MEL-5 melanoma,3.31 µM
same,GI50,UACC-257 melanoma,14.1 µM
same,TGI,UACC-257 melanoma,28.8 µM
same,GI50,MDA-MB-435,17.1 µM
same,TGI,MDA-MB-435,34.2 µM
same,GI50,HCT-116 colon,1.57 µM
same,TGI,HCT-116 colon,3.41 µM
